The text below walks through data of PMC11640973, “The Detection of Toxic Amyloid-β Fibril Fragments Through a Surface Plasmon Resonance Immunoassay” (International Journal of Molecular Sciences, 2024).

In one data set the test system is anti-Aβ antibody 4G8. In words: SPR immunoassay of Aβ42 binding to immobilized anti-Aβ antibody 4G8. The text has this:
This binding profile resembles closely that described previously for a solution containing monomers only. […]
For the present work, we used both the ProteOn™ XPR36 Protein Interaction Array system (Bio-Rad Laboratories, Hercules, CA, USA) and the Sierra SPR®-32 Pro (Bruker, Billerica, MA, USA). The ProteOn™ XPR36 allows for the preparation of six parallel lanes, each representing a different surface on a single chip, with, for instance, five lanes used for ligand (target) immobilization and one designated as a reference. By rotating the chip, each ligand surface can interact with up to six analytes, enabling the simultaneous analysis of up to 36 unique interactions in a single run. The Sierra SPR®-32 Pro is configured with 8 separate channels, each containing four detection spots, one of which serves as a reference spot, enabling analysis with up to 8 samples per run.
The anti-Aβ antibody 4G8 (Signet Laboratories, Emeryville, CA, USA) was immobilized on a CMD50L sensor chip (XanTec bioanalytics, Düsseldorf, Germany) using standard amine coupling chemistry, following standard protocols. A solution of 30 µg/mL 4G8 antibody in 20 mM acetate buffer pH 5.0 was injected for immobilization.
To monitor the aggregation of Aβ42 over time, we followed the general protocol described above. Briefly, Aβ42 was prepared at a final concentration of 50 µM in PBS and incubated at 37 °C. Samples were collected at various time points (0, 6, and 120 h) to capture distinct aggregated forms corresponding to monomers, oligomers/small fibrils, and fibrils. […] The signal from the 4G8-immobilized surface was corrected by subtracting the nonspecific response observed on the empty parallel reference surface.

In another data set the test system is SHSY-5Y cells. In words: MTT toxicity assay on SHSY-5Y cells. It counts as cell-based. The settings on record: 24 h; for toxic effect (cell viability): Bachem Aβ42, 10 to 100 nM; for cell viability (of control): 10 nM, 95%CI fibrils 67.3–76.0%, fragmented 39.6–48.0%; for cell viability (of control) / cell viability (of controls): Bachem Aβ42, fibrils from 48 h at 37 °C, three sessions each in triplicate; for cell viability (of controls): 30 nM, 95%CI fibrils 52.1–57.3, fragmented 39.7–45.71%; for cell viability versus vehicle control cells: 10 to 100 nM, fibrils ± sonication, p < 0.01, one-way ANOVA. The protocol:
SHSY-5Y cell survival was assessed using the MTT colorimetric assay after exposure to Aβ species—including monomers (t = 0), fibrils, and sonicated fibrils (48 h)—prepared and incubated at a concentration of 100 µM for aggregation. As described in the sample preparation chapter, cells were exposed to these Aβ species at final concentrations of 10, 30, and 100 nM for 24 h. Following exposure, cells were incubated with a culture medium (100 µL/well) containing a 1:10 dilution of Thiazolyl blue tetrazolium bromide (MTT; 4 mg dissolved in 1 mL DPBS). The plates were then placed in the incubator for 3 h. At the end of the incubation, the medium containing MTT was replaced with HCl-Isopropanol (1N HCl diluted 1:25 in 100% isopropanol). The absorbance of the colored solution was measured at 540 nm using a microplate spectrophotometer (F500 Infinity, Tecan, Männedorf, Switzerland).
Statistical calculations were performed using GraphPad Prism (version 9.4; GraphPad Software, Bethesda, MD, USA). Paired t-tests were used to analyze differences between experimental conditions (e.g., Figure 3), while one-way ANOVA followed by Tukey’s post hoc test was applied for multiple group comparisons (e.g., Figure 4). The data are presented as mean ± standard deviation (SD). The statistical significance was defined as p < 0.05.

The conditions of data set [1]: Aβ42 compared to Aβ40; ref [35]; cited from earlier work. The protocol: The lyophilized powder obtained from the synthesis and purification was suspended in 0.02% Trifluoracetic acid (TFA). The final pH of the solution was 2.8, ensuring the stability of the depsi bond and preventing premature conversion to the native peptide. The concentration was measured using UV ...

For data set [2] the following is noted: stock solution in 50 mM NaOH (1 mg/mL), −80 °C; ref [38]; cited from earlier work. The protocol: To further validate our results, we used native forms of Aβ42. Lyophilized recombinant Aβ42 (rPepride) and the synthetic Aβ42 (Bachem) were suspended in a 50 mM NaOH solution (1 mg/mL) following the protocol of Taylor et al., which provides a simple and reliable method for the high-yield preparation of seedless Aβ monomers. […] This validated approach reduces handling variability and ensures reproducibility in experiments.

For data set [3] the following is noted: SPR-based approach; ref [21]; cited from earlier work. The text has this:
In order to reliably detect transient oligomeric species in a mixture of aggregated species without sample manipulation, an immunoassay based on surface plasmon resonance (SPR) has been proposed. This method exploits the properties of an anti-Aβ antibody (4G8) for a direct and simultaneous determination of monomers and biologically relevant (i.e., toxic) transient oligomeric species, also distinguishing the latter from large fibrils. SPR is a highly quantitative technique for measuring binding kinetics and determining monomer concentrations. However, in the context of aggregation assays ...

Setting [4] is: freshly prepared Aβ42 (t = 0), 5 µM.
Setting [5] is: freshly prepared Aβ42 (t = 0), 5 µM in PBST (0.005% Tween), flowed over immobilized 4G8.
The mark [6] stands for this setting: incubated 5 days, then one freeze–thaw cycle.

Where only a bound is given, the exact number is not on record here.

As to “fibrillar macroaggregates: Aβ42 incubated 5 days, larger suprafibrillar macroaggregates”, the “recognition of fibrillar macroaggregates by SPR” value with anti-Aβ antibody 4G8 (incubated 5 days at 37 °C) was “not recognized by SPR”.
Consider “Aβ42 monomer: freshly prepared Aβ42 solution (t = 0), containing monomers only”, for which the “KD (calculated from the ratio koff/kon)” value on anti-Aβ antibody 4G8 (Aβ42 monomer binding to immobilized 4G8, t = 0) is given as “about 140 nM”. Further, in the data set on anti-Aβ antibody 4G8 (setting [4]), the “time to complete dissociation” value is recorded as at most 15 min and the “time to saturation of SPR binding signal” value is “≈ 1 min”. Also, in the data set on anti-Aβ antibody 4G8 (setting [5]), the off-rate constant (koff) worked out at 0.0044 s⁻¹ and the kon turned out to be 31000 M⁻¹ s⁻¹. Besides, the “toxic effect (cell viability)” value in the data set with SHSY-5Y cells (MTT) was “rule out any toxic effect”.
With Amyloid-β1–42 [Aβ42], the “dissociation of most of the binding signal” value in the data set with anti-Aβ antibody 4G8 (50 µM in PBS incubated 6 h at 37 °C, diluted to 5 µM, 15 min dissociation phase) is “very slow dissociation”. The “SPR binding signal on immobilized 4G8” value in the data set on anti-Aβ antibody 4G8 (50 µM in PBS incubated 6 h at 37 °C, diluted to 5 µM, versus t = 0) is reported as “marked increase in the SPR binding signal”. The “decrease in the monomer signal” value in the data set with anti-Aβ antibody 4G8 (6 h of aggregation, 50 µM in PBS, 37 °C) was 56%. The “oligomer-dependent SPR signal (slow dissociation)” value with anti-Aβ antibody 4G8 (fragmentation by freeze–thaw or sonication, eight independent experiments, rPeptide, Bachem or depsi-peptide Aβ42, Proteon or Bruker, p = 0.0012 paired t-test) is “fragmentation-induced increase in SPR-detected Aβ42 oligomers”. Also, the “time to complete dissociation of signal” value in the data set with anti-Aβ antibody 4G8 (incubated 5 days at 37 °C (residual monomers)) is recorded as at most 15 min. For the same compound, the SPR signal entry with anti-Aβ antibody 4G8 (incubated 5 days at 37 °C, versus 6 h and freshly prepared) is “much lower SPR signal compared to the solution incubated for 6 h (Figure 2c), and even lower than that of the freshly prepared solution”. Besides, in the data set on anti-Aβ antibody 4G8 (setting [6]), the SPR signals entry was “marked increase in the SPR signals” and the “absolute amount of monomers” value was “decreased”. Also, the aggregation propensity entry in data set [1] is given as “higher aggregation propensity”. Moreover, the “stability of monomeric state” value in data set [2] is listed as “at least 40 days”.
With “sonicated fibrils: Aβ42 fibrils produced by tip sonication (1 min 10% power 30% cycles)”, in the data set on SHSY-5Y cells (MTT), the “cell viability (of control)” value came out at 43.8% and the “cell viability (of controls)” value is given as 42.7%. The “cell viability versus vehicle control cells” value in the data set on SHSY-5Y cells is recorded as “significantly different from the viability of control cells”. In the data set on SHSY-5Y cells (sonicated versus unfragmented fibrils, 10 and 30 nM, MTT), the “fibril toxicity, change by fragmentation” value is “significantly increased by fragmentation”.
With `O=C(O[C@@H]1Cc2c(O)cc(O)cc2O[C@@H]1c1cc(O)c(O)c(O)c1)c1cc(O)c(O)c(O)c1` [epigallocatechin gallate], the “effect on formation of Aβ42 oligomers” value in data set [3] is listed as “inhibited”.
As for “Aβ40: Aβ1–40, fragment of Amyloid Precursor Protein [reference compound]”, the aggregation propensity result in data set [1] was “aggregates more slowly”.
As for “fibrils: Aβ42 purchased from Bachem, fibrils obtained after 48 h incubation at 37 °C”, in the data set with SHSY-5Y cells (MTT), the “cell viability (of control)” value was found to be 71.6%, the “cell viability (of controls)” value is listed as 54.73% and the “toxic effect (cell viability)” value is “concentration-dependent toxicity”. Also, the “cell viability versus vehicle control cells” value in the data set with SHSY-5Y cells is “significantly different from the viability of control cells”.
